From US9487486B2, “Derivatives of nicotinic acid N-oxide, their preparation and their use as inhibitors of enzyme 3-hydroxyanthranilate-3, 4-dioxygenase” (UNIVERSITY OF MARYLAND, BALTIMORE, priority 2011, dated 2016)

Assays:
[1] = target: T1, 3-hydroxyanthranilate-3,4-dioxygenase (3HAO) (Homo sapiens, UniProt P46952); assay: In vitro 3HAO inhibition in human brain homogenates; format: biochemical
T1 construct: One hundred μl of healthy human brain homogenate; from tissue; host or cells: healthy human brain homogenate
T1 sequence (P46952 1-286): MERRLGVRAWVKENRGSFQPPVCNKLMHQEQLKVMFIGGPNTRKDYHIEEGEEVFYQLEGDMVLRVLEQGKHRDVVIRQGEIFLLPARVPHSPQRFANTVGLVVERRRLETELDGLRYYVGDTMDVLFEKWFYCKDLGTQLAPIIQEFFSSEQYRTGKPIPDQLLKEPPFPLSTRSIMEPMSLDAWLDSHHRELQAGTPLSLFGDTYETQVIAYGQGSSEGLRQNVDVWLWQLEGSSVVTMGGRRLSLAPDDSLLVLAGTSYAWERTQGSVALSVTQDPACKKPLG
Protocol: (§1) The following procedure has been carried out for all the six compounds prepared according to the Examples 1-6 above.
(§2) One hundred μl of healthy human brain homogenate (1/10 dilution in bidistilled water) were further diluted (1/2, 5 v/v) with a 5 mM MES/NaOH buffer (pH 6.5) and incubated at 37° C. for 1 h in the presence of the radiolabeled substrate[14C]-3-hydroxyanthranilic acid (3.7 μM), ferrous ammonium sulphate (150 μM), ascorbic acid (0.01%). 20 μl of a solution (10 μM) of a compound of the invention were added prior to the addition of the radiolabeled substrate, to a final volume of 200 μl. The enzymatic reaction was stopped by adding 50 μl of 6% perchloric acid. The mixture was centrifuged for 5 min a 12.000 g and the supernatant was applied to a column packed with a cation-exchange resin (Dowex 50W, 0.5×2.0 cm; protonated form). [14C]-quinolinic acid formed by enzymatic reaction was eluted with 1 ml of distilled water. The eluate was added to scintillation liquid (Beckman, Ultima Gold) and radioactivity was measured with a beta-counter.
(§3) The same procedure has been repeated by adding 20 μl of a solution (100 μM) of a compound of the invention and repeated by adding 20 μl of a solution (1000 μM) of a compound of the invention.

[2] = target: T2, 3-hydroxyanthranilate-3,4-dioxygenase (3HAO) (Rattus norvegicus, UniProt P46953); assay: In vitro 3HAO inhibition in rat brain homogenates; format: biochemical
T2 construct: One hundred μl of control Sprague Dawley rat brain homogenate; from tissue; host or cells: Sprague Dawley rat brain homogenate
T2 sequence (P46953 1-286): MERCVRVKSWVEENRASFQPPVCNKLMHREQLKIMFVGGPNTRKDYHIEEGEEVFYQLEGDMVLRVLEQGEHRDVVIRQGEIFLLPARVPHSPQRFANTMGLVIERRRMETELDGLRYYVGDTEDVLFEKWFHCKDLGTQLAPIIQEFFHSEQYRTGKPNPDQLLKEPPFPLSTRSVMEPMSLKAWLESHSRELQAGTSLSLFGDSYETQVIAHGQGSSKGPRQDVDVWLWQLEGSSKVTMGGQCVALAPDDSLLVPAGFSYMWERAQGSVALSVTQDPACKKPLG
Protocol: as §1
as §2, with “μl of control Sprague Dawley rat brain homogenate” for “μl of healthy human brain homogenate”, “acid (3.7 µM), ferrous ammonium” for “acid (3.7 μM), ferrous ammonium”, “sulphate (150 µM), ascorbic acid” for “sulphate (150 μM), ascorbic acid”, “radiolabeled substrate, for a total” for “radiolabeled substrate, to a final”, “for a total volume of” for “to a final volume of”, “with a is beta-counter.” for “with a beta-counter.”
as §3

[3] = system: de novo production of QUIN in QUIN-lesioned rat brain; assay: In vivo de novo production of QUIN from 3H-kynurenine in QUIN-lesioned rat striatum; settings: 5 mM I3 co-infused intrastriatally with 3H-kynurenine, 7 days after lesion, 2 h, FIG. 1
Protocol: Quinolinic acid lesions in the rat striatum were made as described by Schwarcz et al. (1983), using 300 nmol quinolinic acid per injection. In vivo assays of I3 in the lesioned striatum were performed 7 days later. [Schwarcz R, Whetsell W O Jr, Mangano R M (1983) Quinolinic acid: an endogenous metabolite that produces axon-sparing lesions in rat brain. Science 219:316-8.]
Intrastriatal injection of 3H-kynurenine: two months-old male Sprague-Dawley rats were anesthetized with chloral hydrate (360 mg/kg, i.p.) and mounted in a David Kopf stereotaxic apparatus (Tujunga, Calif.). Through a small burr hole in the skull, […] of 3H-kynurenine [in phosphate-buffered saline (PBS), pH 7.4] was infused (6 μL over 10 min) intrastriatally. 3H-kynurenine was infused in the absence or presence of 5 mM I3. The injection coordinates were: AP: 1.0 mm anterior to bregma, L: 2.6 mm from the midline, V: 4.8 mm below dura. Animals were euthanized 2 h later and the striatum was dissected out, frozen on dry ice and stored at −80° C. Subsequently, the tissue was processed for the determination of tritiated neuroactive products of KP metabolism. […]
Analysis of 3H-quinolinic acid: the analysis of tritiated quinolinic acid derived from 3H-kynurenine was performed essentially as described by Guidetti et al. (1995). […] Tritiated quinolinic acid was detected radiometrically (Beta-Ram; IN/US Systems, Tampa, Fla.). […]

[4] = Chemical stability over time in phosphate buffer (HPLC); format: physicochemical; settings: phosphate buffer pH 7.5; 10 and 100 μM; 37° C.; 24 h; FIG. 2
Protocol: Compound I3 was dissolved in a phosphate buffer at pH 7.5 at two different concentrations (10 and 100 μM). The resulting solutions were incubated at 37° C. for 24 h.
Chromatographic analyses were performed with a HPLC system (Shimadzu Corp., Kyoto, Japan), endowed with a UV/VIS detector, and the samples were eluted with a mixture containing methanol (0.05% TFA)/water (0.25% TFA)=20/80 at a flow rate of 1 ml/min.

[5] = 1000 μM compound, human brain homogenate (I4-I6 table)
[6] = 1000 μM compound, rat brain homogenate (I4-I6 table)
[7] = 10 μM compound, human brain homogenate
[8] = 100 μM compound, human brain homogenate
[9] = 1000 μM compound, human brain homogenate (I1-I3 table)
[10] = 10 μM compound, rat brain homogenate
[11] = 100 μM compound, rat brain homogenate
[12] = 1000 μM compound, rat brain homogenate (I1-I3 table)

Structure (SMILES)	% inibition of 3HAO (h) [1, 5] [%]	% inibition of 3HAO (r) [2, 6] [%]	% inibition of 3HAO (h) [1, 7] [%]	% inibition of 3HAO (h) [1, 8] [%]	% inibition of 3HAO (h) [1, 9] [%]	% inibition of 3HAO (r) [2, 10] [%]	% inibition of 3HAO (r) [2, 11] [%]	% inibition of 3HAO (r) [2, 12] [%]	Effect on brain level of QUIN (de novo 3H-quinolinic acid production) [3]	Chemical stability (HPLC) [4]
CC(C)c1cc(C(C)C)[n+]([O-])c(N)c1C(=O)O [Compound I6, 2-amino-4,6-diisopropylnicotinic acid N-oxide]	60	70								
Cc1ccc(C(=O)O)c(N)[n+]1[O-] [Compound I3, 2-amino-6-methylnicotinic acid N-oxide]			80	100	100	78	97	99	able to block the abnormal de novo production of QUIN under excitotoxic conditions	complete chemical stability
Nc1c(C(=O)O)ccc(Cl)[n+]1[O-] [Compound I2, 2-amino-6-chloronicotinic acid N-oxide]			42	100	100	22	76	99		

The next lines start with results.

% inibition of 3HAO (h) [1, 5] [%]	% inibition of 3HAO (r) [2, 6] [%]	% inibition of 3HAO (h) [1, 7] [%]	% inibition of 3HAO (h) [1, 8] [%]	% inibition of 3HAO (h) [1, 9] [%]	% inibition of 3HAO (r) [2, 10] [%]	% inibition of 3HAO (r) [2, 11] [%]	% inibition of 3HAO (r) [2, 12] [%]	Structure (SMILES)	Effect on brain level of QUIN (de novo 3H-quinolinic acid production) [3]	Chemical stability (HPLC) [4]
70	80							Cc1cc(-c2ccccc2)c(C(=O)O)c(N)[n+]1[O-] [Compound I5, 2-amino-4-phenyl-6-methylnicotinic acid N-oxide]		
23	15							Cc1ccc(C(N)=O)c(N)[n+]1[O-] [Compound I4, 2-amino-6-methylnicotinamide N-oxide]		
		66	93	96	49	90	97	Nc1c(C(=O)O)ccc[n+]1[O-] [Compound I1, 2-aminonicotinic acid N-oxide]		
